US9951049B2, “Pyrazole linked benzimidazole conjugates and a process for preparation thereof” (Council of Scientific & Industrial Reseach, priority 2014, dated 2018)

What was measured:
[1] = test system: UACC-254; assay: NCI SRB screen, UACC-254; settings: Homo sapiens, read-out: GI50 values
[2] = test system: MDA-MB-468; assay: NCI SRB screen, MDA-MB-468; settings: Homo sapiens, MDA-MB-468, read-out: GI50 values

SMILES	GI50 [1] [nM]	GI50 [2] [nM]
Fc1ccc2[nH]c(-c3cc(-c4ccc5c(c4)OCO5)n[nH]3)nc2c1 [7g, 2-(3-(benzo[d][1,3]dioxol-5-yl)-1H-pyrazol-5-yl)-5-fluoro-1H-benzo[d]imidazole]	1020	–
COc1ccc2[nH]c(-c3cc(-c4cc(OC)c(OC)c(OC)c4)n[nH]3)nc2c1 [9f, 5-methoxy-2-(3-(3,4,5-trimethoxyphenyl)-1H-pyrazol-5-yl)-1H-benzo[d]imidazole]	–	380
